In ChEMBL document CHEMBL1137957, “Probing pockets S2-S4' of the gamma-secretase active site with (hydroxyethyl)urea peptidomimetics” (Bioorg Med Chem Lett, 2004) one finds IC50 data, which are given here for 22 compounds.

Usually IC50 stands for the concentration that gives 50% inhibition. The low end stands for higher potency, the high end for lower potency.

This experiment has as its target Gamma-secretase. Put plainly: Inhibition of amyloid-beta production in Chinese hamster ovary (CHO) cells expressing human amyloid precursor protein (APP). In kind it is functional, cell-based.
Consider `COC(=O)[C@H](CC(C)C)NC(=O)[C@H](CC(C)C)NC(=O)N(Cc1ccccc1)C[C@@H](O)[C@H](Cc1ccccc1)NC(=O)OC(C)(C)C`, for which the IC50 was found to be 650 nM.

`COC(=O)[C@H](CC(C)C)NC(=O)[C@@H](NC(=O)[C@H](CC(C)C)NC(=O)N(Cc1ccccc1)C[C@@H](O)[C@H](Cc1ccccc1)NC(=O)OC(C)(C)C)C(C)C` displayed an IC50 of 540 nM.

For the compound `COC(=O)[C@H](C)NC(=O)[C@@H](NC(=O)[C@H](CC(C)C)NC(=O)N(Cc1ccccc1)C[C@@H](O)[C@H](Cc1ccccc1)NC(=O)OC(C)(C)C)C(C)C`, the IC50 is 670 nM.

The compound `COC(=O)[C@H](Cc1ccccc1)NC(=O)[C@H](CC(C)C)NC(=O)N(Cc1ccccc1)C[C@@H](O)[C@H](Cc1ccccc1)NC(=O)OC(C)(C)C` (stereo in doubt; 12) gave an IC50 of 390 nM.

Compound `COC(=O)[C@@H](NC(=O)[C@H](CC(C)C)NC(=O)N(Cc1ccccc1)C[C@@H](O)[C@H](Cc1ccccc1)NC(=O)[C@H](CC(C)C)NC(=O)OC(C)(C)C)C(C)C` showed an IC50 of 230 nM. Against the preceding compound, the IC50 is about 1.7-fold lower.

`COC(=O)[C@@H](NC(=O)[C@H](CC(C)C)NC(=O)N(Cc1ccccc1)C[C@@H](O)[C@H](Cc1ccccc1)NC(=O)[C@H](Cc1ccccc1)NC(=O)OC(C)(C)C)C(C)C` displayed an IC50 of 500 nM. Compared with the last compound, the IC50 is about 2.2-fold higher.

`COC(=O)[C@H](Cc1ccccc1)NC(=O)[C@H](CC(C)C)NC(=O)N(Cc1ccccc1)C[C@@H](O)[C@H](Cc1ccccc1)NC(=O)OC(C)(C)C` (stereo in doubt; 9) registered an IC50 of 400 nM.

For the compound `COC(=O)[C@@H](NC(=O)[C@@H](NC(=O)[C@H](CC(C)C)NC(=O)N(Cc1ccccc1)C[C@@H](O)[C@H](Cc1ccccc1)NC(=O)OC(C)(C)C)C(C)C)C(C)C`, half-maximal inhibition (IC50) was put at 530 nM.

On to `COC(=O)[C@H](Cc1ccccc1)NC(=O)[C@H](CC(C)C)NC(=O)N(CC(C)C)C[C@@H](O)[C@H](Cc1ccccc1)NC(=O)OC(C)(C)C`, for which the IC50 came to 400 nM.

The compound `COC(=O)[C@H](CC(C)C)NC(=O)N(Cc1ccccc1)C[C@@H](O)[C@H](Cc1ccccc1)NC(=O)OC(C)(C)C` yielded an IC50 of 8000 nM.

`COC(=O)[C@H](Cc1ccccc1)NC(=O)[C@H](CC(C)C)NC(=O)N(C)C[C@@H](O)[C@H](Cc1ccccc1)NC(=O)OC(C)(C)C` displayed an IC50 of 3100 nM. Compared with the last compound, the IC50 is about 2.6-fold lower.

`COC(=O)[C@H](Cc1ccccc1)NC(=O)[C@H](C)NC(=O)N(Cc1ccccc1)C[C@@H](O)[C@H](Cc1ccccc1)NC(=O)OC(C)(C)C` had an IC50 of 140 nM.

The compound `CC[C@H](C)[C@H](NC(=O)[C@@H](NC(=O)[C@H](CC(C)C)NC(=O)N(Cc1ccccc1)C[C@@H](O)[C@H](Cc1ccccc1)NC(=O)OC(C)(C)C)C(C)C)C(=O)OC` displayed an IC50 of 270 nM.

On to `COC(=O)[C@H](C)NC(=O)[C@H](CC(C)C)NC(=O)N(Cc1ccccc1)C[C@@H](O)[C@H](Cc1ccccc1)NC(=O)OC(C)(C)C`, for which 20000 nM corresponded to half-maximal inhibition (IC50).

For the compound `COC(=O)[C@H](Cc1ccccc1)NC(=O)[C@@H](NC(=O)[C@H](CC(C)C)NC(=O)N(Cc1ccccc1)C[C@@H](O)[C@H](Cc1ccccc1)NC(=O)OC(C)(C)C)C(C)C`, half-maximal inhibition (IC50) required 250 nM.

For `COC(=O)[C@H](Cc1ccccc1)NC(=O)[C@H](CC(C)C)NC(=O)N(C[C@@H](O)[C@H](Cc1ccccc1)NC(=O)OC(C)(C)C)C(C)C`, 22000 nM corresponded to half-maximal inhibition (IC50).

Take `COC(=O)[C@H](Cc1ccccc1)NC(=O)[C@H](Cc1ccccc1)NC(=O)N(Cc1ccccc1)C[C@@H](O)[C@H](Cc1ccccc1)NC(=O)OC(C)(C)C`: it took 18000 nM to reach half-maximal inhibition (IC50). The IC50 values of the last two compounds are within 1.5-fold of each other.

Compound `COC(=O)[C@@H](NC(=O)[C@H](CC(C)C)NC(=O)N(Cc1ccccc1)C[C@@H](O)[C@H](Cc1ccccc1)NC(=O)OC(C)(C)C)C(C)C` showed an IC50 of 220 nM.

In the case of `COC(=O)[C@@H](NC(=O)[C@H](CC(C)C)NC(=O)N(Cc1ccccc1)C[C@@H](O)[C@H](Cc1ccccc1)NC(=O)[C@@H](NC(=O)OC(C)(C)C)C(C)C)C(C)C`, it took 70 nM to reach half-maximal inhibition (IC50).

For `COC(=O)[C@H](Cc1ccccc1)NC(=O)[C@@H](NC(=O)N(Cc1ccccc1)C[C@@H](O)[C@H](Cc1ccccc1)NC(=O)OC(C)(C)C)C(C)C`, 400 nM corresponded to half-maximal inhibition (IC50).

The compound `COC(=O)[C@H](Cc1ccccc1)NC(=O)[C@H](CC(C)C)NC(=O)N(Cc1ccccc1)C[C@@H](O)[C@H](Cc1ccccc1)NC(=O)OC(C)(C)C` (stereo in doubt; 2) showed an IC50 of 390 nM. The IC50 values of the last two compounds are within 1.5-fold of each other.

`COC(=O)[C@@H](NC(=O)[C@H](CC(C)C)NC(=O)N(Cc1ccccc1)C[C@@H](O)[C@H](Cc1ccccc1)NC(=O)[C@H](C)NC(=O)OC(C)(C)C)C(C)C` registered an IC50 of 150 nM. This IC50 lies about 2.6-fold lower than the previous one.
